Measured values reported in patent US9862676B2, “Hydroxamic acid derivative or salt thereof” (TOYAMA CHEMICAL CO., LTD., priority 2013, dated 2018).
≈ marks a conversion by molar mass, not a printed value.

Legend:
[1] = target: T1, hERG current (Homo sapiens, UniProt Q12809); test: Evaluation of hERG inhibitory activity (whole cell clamp, HEK 293 cells); assay type: cell-based; conditions: up to 300 μmol/L; HEK 293 cells transfected with hERG gene, tail current 10 minutes after application
T1 construct: host or cells: HEK 293 cells
T1 sequence (Q12809 whole entry): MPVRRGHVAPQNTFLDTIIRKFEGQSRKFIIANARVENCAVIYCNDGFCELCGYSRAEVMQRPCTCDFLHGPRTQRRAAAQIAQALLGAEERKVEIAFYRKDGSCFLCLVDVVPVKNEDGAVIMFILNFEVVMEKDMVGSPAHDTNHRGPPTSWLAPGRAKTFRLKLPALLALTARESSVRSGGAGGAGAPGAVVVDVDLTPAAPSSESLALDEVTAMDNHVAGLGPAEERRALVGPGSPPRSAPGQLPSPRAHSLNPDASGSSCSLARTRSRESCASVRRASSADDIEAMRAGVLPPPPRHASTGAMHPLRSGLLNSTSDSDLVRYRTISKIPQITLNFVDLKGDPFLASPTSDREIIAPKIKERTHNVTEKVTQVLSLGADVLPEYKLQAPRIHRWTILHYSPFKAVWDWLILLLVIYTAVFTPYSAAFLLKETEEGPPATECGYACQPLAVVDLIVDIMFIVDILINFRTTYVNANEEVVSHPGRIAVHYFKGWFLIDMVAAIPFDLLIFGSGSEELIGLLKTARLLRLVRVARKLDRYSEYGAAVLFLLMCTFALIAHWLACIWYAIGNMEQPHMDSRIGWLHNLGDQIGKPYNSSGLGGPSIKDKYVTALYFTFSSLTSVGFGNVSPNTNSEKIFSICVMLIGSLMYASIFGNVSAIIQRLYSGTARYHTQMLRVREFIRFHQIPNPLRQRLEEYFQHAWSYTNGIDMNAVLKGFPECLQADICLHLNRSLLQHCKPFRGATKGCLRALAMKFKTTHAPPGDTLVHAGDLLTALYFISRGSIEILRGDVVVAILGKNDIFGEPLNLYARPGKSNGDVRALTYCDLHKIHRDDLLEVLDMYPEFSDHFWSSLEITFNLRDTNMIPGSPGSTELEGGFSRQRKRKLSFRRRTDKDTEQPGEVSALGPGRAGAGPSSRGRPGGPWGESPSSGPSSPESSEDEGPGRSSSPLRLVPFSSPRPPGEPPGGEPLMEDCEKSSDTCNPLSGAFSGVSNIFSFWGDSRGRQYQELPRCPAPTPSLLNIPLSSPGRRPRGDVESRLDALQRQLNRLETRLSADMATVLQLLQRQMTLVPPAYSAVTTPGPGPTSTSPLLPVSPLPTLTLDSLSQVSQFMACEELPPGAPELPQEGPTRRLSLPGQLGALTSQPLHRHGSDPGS
Method: HEK 293 cells (human embryo kidney 293 cells, Cytomyx LLC) transfected with hERG gene (human ether-a-go-go related gene) were used. The culture solution used was a MEM medium containing 10% fetal bovine serum and 1% nonessential amino acid and further supplemented with Geneticin at a concentration of 400 μg/mL. The cells were cultured in a carbonic acid gas incubator (37.0° C., 5% CO2).
The hERG current was measured by a whole cell clamp method. A glass cover with the cells for measurement attached thereto was placed in a dish and perfused at a rate of 2 mL/min with a perfusate (composition: 137 mmol/L NaCl, 4 mmol/L KCl, 10 mmol/L HEPES, 1.8 mmol/L CaCl2, 1 mmol/L MgCl2, 10 mmol/L glucose, pH 7.4). The inside temperature of the perfusion chamber was kept at 25° C. […]
Before the application and 10 minutes after the application, the peak value of tail current in the hERG current waveform was analyzed to calculate the ratio of the value 10 minutes after the application to the value before the application (relative value, %).

[2] = target: T2, Pseudomonas aeruginosa LpxC enzyme (Pseudomonas aeruginosa, UniProt P47205); test: Test to evaluate Pseudomonas aeruginosa LpxC enzyme inhibitory activity; assay type: biochemical
T2 construct: made in house; host or cells: Escherichia coli
T2 sequence (P47205 1-303): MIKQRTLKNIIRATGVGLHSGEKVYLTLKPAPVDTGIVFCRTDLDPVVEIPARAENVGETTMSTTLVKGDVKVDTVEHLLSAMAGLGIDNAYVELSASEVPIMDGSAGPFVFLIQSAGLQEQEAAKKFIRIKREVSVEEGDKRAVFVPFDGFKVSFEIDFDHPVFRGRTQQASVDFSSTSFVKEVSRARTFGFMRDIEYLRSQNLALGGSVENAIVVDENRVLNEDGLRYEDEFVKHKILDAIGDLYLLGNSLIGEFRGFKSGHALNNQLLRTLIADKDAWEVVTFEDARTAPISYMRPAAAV
Method: The Pseudomonas aeruginosa LpxC enzyme activity was measured by reacting LpxC with its substrate UDP-3-O—(R-3-hydroxydecanoyl)-N-acetylglucosamine and measuring the amount of the reaction product by the quantification of an amino group present in the product. This measurement was carried out according to a method described in, for example, International Publication No. WO 11/132712 pamphlet or a method similar thereto.
Specifically, to the Pseudomonas aeruginosa LpxC enzyme (which was obtained by preparing chromosomal DNA from Pseudomonas aeruginosa, obtaining the Pseudomonas aeruginosa LpxC gene by PCR (polymerase chain reaction) using LpxC-specific primers, and incorporating this gene into a vector, followed by gene expression using Escherichia coli), 20 μmol/L UDP-3-O—(R-3-hydroxydecanoyl)-N-acetylglucosamine (Wako Pure Chemical Industries, Ltd.) was added, and the mixture was incubated at 25° C. for 1 hour. This reaction was carried out in a 40 mmol/L HEPES buffer solution (pH 8.0) containing 0.02% Brij 35 and 80 μmol/L dithiothreitol. The reaction was terminated by the addition of 20% acetic acid (final concentration: 0.95%) to the reaction solution. Then, fluorescamine (final concentration: 1.6 mg/mL) dissolved in anhydrous dioxane was added thereto. The amount of the reaction product was detected at an excitation wavelength/fluorescence wavelength=390 nm/495 nm. Each test compound was allowed to coexist at various concentrations in the reaction to obtain an inhibition curve.

[3] = tested on: multidrug-resistant Pseudomonas aeruginosa clinical isolate (S-2838 strain); test: Defense against mouse systemic infection using multidrug-resistant Pseudomonas aeruginosa; assay type: in vivo; conditions: male ICR mice, S-2838 strain i.p.
Method: The mice used were male ICR SPF mice (4 weeks old: 5 individuals per group). To prepare a bacterial inoculum solution, a multidrug-resistant Pseudomonas aeruginosa clinical isolate (S-2838 strain) cultured overnight at 37° C. on a Mueller-Hinton agar plate was cultured for 5 hours in a cation-adjusted Mueller-Hinton medium and then diluted 10-fold with a 10% mucin/phosphate buffer solution to prepare the inoculum solution. Infection was induced by the intraperitoneal inoculation of 0.5 mL of the inoculum solution (approximately 10^6 CFU/mouse) to each mouse. Each test compound was dissolved in a 10% hydroxypropylated β-cyclodextrin/2.5% mannitol aqueous solution and intravenously administered to the tail a single dose of 50 mg/kg at 1 hour after the infection. Three days after the infection, the number of survivors was recorded.

[4] = tested on: Pseudomonas aeruginosa ATCC27853 strain; test: Antibacterial activity, MIC by broth microdilution (CLSI); assay type: cell-based
Method: The minimum inhibitory concentration (MIC) was measured according to the CLSI (Clinical and Laboratory Standards Institute) standard method using a broth microdilution method given below. The bacteria used were a Pseudomonas aeruginosa ATCC27853 strain, an Escherichia coli ATCC25922 strain and a Klebsiella pneumoniae ATCC13883 strain. Test bacterial cells of each strain cultured overnight in a Mueller-Hinton agar medium were scraped off and suspended at the McFarland 0.5 standard, and this suspension was diluted 10-fold to prepare an inoculum solution. The inoculum solution (0.005 mL) was inoculated to a cation-adjusted Mueller-Hinton medium containing each test compound and cultured at 35° C. for 16 to 20 hours. The minimum drug concentration at which bacterial growth was not visible to the naked eye was defined as MIC.

[5] = tested on: Chinese hamster lung fibroblasts (CHL/IU cells); test: In vitro micronucleus test for genotoxicity; assay type: cell-based; conditions: dose of 1 mmol/L or lower, short-time treatment (with and without metabolic activation) and 30-hour treatment methods
Method: In order to examine the inducibility of the chromosomal aberrations by each test compound in cultured cells, the in vitro micronucleus test was carried out. This test was carried out by a short-time treatment method (in the presence and absence of a metabolic activation) and a 30-hour treatment method using Chinese hamster lung fibroblasts (CHL/IU cells). The concentration of the test compound was set to 1.00 mmol/L as the maximum dose with reference to the “Guidance on Genotoxicity Testing and Data Interpretation for Pharmaceuticals Intended for Human Use”. Specimens were observed as to doses of 0.25, 0.50 and 1.00 mmol/L. The cells were inoculated at 15×10^4 cells to a 60-mm dish (IWAKI) and precultured at 37° C. for 24 hours under 5% CO2 using a MEM medium (Sigma-Aldrich Co., Ltd.) containing 10% newborn calf serum (Sigma-Aldrich Co., Ltd.) and 50 U/mL-50 μg/mL Penicillin-Streptomycin (Sigma-Aldrich Co., Ltd.). After the completion of the preculture, a vehicle (DMSO) or each test compound was added thereto. In the short-time treatment method, 6 hours after the culture, the cells were washed with PBS(−) (Sigma-Aldrich Co., Ltd.), and then, the medium was replaced with a fresh medium, followed by further culture for 24 hours. In the 30-hour treatment method, after the addition of the test compound, the cells were cultured for 30 hours. […]

[6] = Test on inhibition of Vero cell growth (XTT); assay type: cell-based; conditions: African green monkey, Vero cells, 3 days culture, read-out: CC50 (concentration inhibiting 50% of cell growth)
Method: Each test compound was dissolved in dimethyl sulfoxide, adjusted to each concentration using E'MEM, and then dispensed at 0.1 mL/well to 96-well microplates. The Vero cell suspension was prepared at 3×10^4 cells/mL using E'MEM supplemented with 20% FBS, inoculated thereto at 0.1 mL/well, and cultured at 37° C. for 3 days under 5% CO2. At the completion of the culture, PBS supplemented with 1 mg/mL 2,3-bis-(2-methoxy-4-nitro-5-sulfophenyl)-5-((phenylamino)carbonyl)-2H-tetrazolium inner salt monosodium salt (XTT) and 25 μM phenazine methosulfate (PMS) was prepared and added thereto at 50 μL/well. Approximately 2 hours later, the absorbance at 450 nm was measured using a microplate reader.

For `CNC(=O)[C@@](C)(C(=O)NO)N(C)C(=O)c1ccc(C#Cc2ccc([C@H](O)CO)cc2)cc1` [Example 20, (2S)-2-((4-((4-((1S)-1,2-dihydroxyethyl)phenyl)ethynyl)benzoyl)(methyl)amino)-N-hydroxy-N′,2-dimethyl-malonamide], the hERG inhibitory activity [1] was “did not exhibit hERG inhibitory activity”, the IC50 [2] was < 50 nM and the “mice surviving 3 days after the bacterial inoculation” value ([3]; 25 mg/kg) was ≥ 60%. For the same compound, the “mice surviving 3 days after the bacterial inoculation” value ([3]; single intravenous dose 50 mg/kg 1 hour after infection) was 100%, the MIC [4] was 1 µg/mL (≈ 2.28 µM) and the “in vitro micronucleus test result” value [5] was “negative”. For the same compound, the CC50 at 3 days [6] was ≥ 100 µg/mL.
